Measurements reported in paper PMC8800111 (The Journal of Biological Chemistry, 2021).

Assays:
Assay type in all cases: cell-based
[1] = target: proteins of U3A human fibrosarcoma cells (4462 proteins detected) (Homo sapiens, UniProt O00231); conditions: protein PSMD11; U3A cells
[2] = target: proteins of U3A human fibrosarcoma cells (4462 proteins detected) (Homo sapiens, UniProt O14965); conditions: protein AURKA; soluble abundance after heat, U3A cells
[3] = target: proteins of U3A human fibrosarcoma cells (4462 proteins detected) (Homo sapiens, UniProt O75147); conditions: protein OBSL1, U3A cells
[4] = target: proteins of U3A human fibrosarcoma cells (4462 proteins detected) (Homo sapiens, UniProt O75533); conditions: protein SF3B1; U3A cells
[5] = target: proteins of U3A human fibrosarcoma cells (4462 proteins detected) (Homo sapiens, UniProt P07602); conditions: protein PSAP; soluble abundance after heat, U3A cells
[6] = target: proteins of U3A human fibrosarcoma cells (4462 proteins detected) (Homo sapiens, UniProt P11388); conditions: protein TOP2A; U3A cells
[7] = target: proteins of U3A human fibrosarcoma cells (4462 proteins detected) (Homo sapiens, UniProt P54920); conditions: protein NAPA; soluble abundance after heat, U3A cells
[8] = target: proteins of U3A human fibrosarcoma cells (4462 proteins detected) (Homo sapiens, UniProt P55769); conditions: protein NHP2L1; soluble abundance after heat, U3A cells
[9] = target: proteins of U3A human fibrosarcoma cells (4462 proteins detected) (Homo sapiens, UniProt P62701); conditions: protein RPS4X; soluble abundance after heat, U3A cells
[10] = target: proteins of U3A human fibrosarcoma cells (4462 proteins detected) (Homo sapiens, UniProt P62873); conditions: protein GNB1; U3A cells
[11] = target: proteins of U3A human fibrosarcoma cells (4462 proteins detected) (Homo sapiens, UniProt Q03252); conditions: protein LMNB2; U3A cells
[12] = target: proteins of U3A human fibrosarcoma cells (4462 proteins detected) (Homo sapiens, UniProt Q05397); conditions: protein PTK2; U3A cells
[13] = target: proteins of U3A human fibrosarcoma cells (4462 proteins detected) (Homo sapiens, UniProt Q06323); conditions: protein PSME1; soluble abundance after heat, U3A cells
[14] = target: proteins of U3A human fibrosarcoma cells (4462 proteins detected) (Homo sapiens, UniProt Q14669); conditions: protein TRIP12, U3A cells
[15] = target: proteins of U3A human fibrosarcoma cells (4462 proteins detected) (Homo sapiens, UniProt Q15370); conditions: protein TCEB2, U3A cells
[16] = target: proteins of U3A human fibrosarcoma cells (4462 proteins detected) (Homo sapiens, UniProt Q15468); conditions: protein STIL; U3A, 10 μM, 2 h
[17] = target: proteins of U3A human fibrosarcoma cells (4462 proteins detected) (Homo sapiens, UniProt Q5PSV4); conditions: protein BRMS1L, U3A cells
[18] = target: proteins of U3A human fibrosarcoma cells (4462 proteins detected) (Homo sapiens, UniProt Q6PD74); conditions: protein AAGAB; U3A cells
[19] = target: proteins of U3A human fibrosarcoma cells (4462 proteins detected) (Homo sapiens, UniProt Q6SPF0); conditions: protein SAMD1; soluble abundance after heat, U3A cells
[20] = target: proteins of U3A human fibrosarcoma cells (4462 proteins detected) (Homo sapiens, UniProt Q8N9N2); conditions: protein ASCC1; U3A cells
[21] = target: proteins of U3A human fibrosarcoma cells (4462 proteins detected) (Homo sapiens, UniProt Q8NAV1); conditions: protein PRPF38A; U3A cells
[22] = target: proteins of U3A human fibrosarcoma cells (4462 proteins detected) (Homo sapiens, UniProt Q92530); conditions: protein PSMF1; soluble abundance after heat, U3A cells
[23] = target: proteins of U3A human fibrosarcoma cells (4462 proteins detected) (Homo sapiens, UniProt Q9BZE1); conditions: protein MRPL37; U3A, 10 μM, 2 h
[24] = target: proteins of U3A human fibrosarcoma cells (4462 proteins detected) (Homo sapiens, UniProt Q9GZT3); conditions: protein SLIRP, U3A cells
[25] = target: proteins of U3A human fibrosarcoma cells (4462 proteins detected) (Homo sapiens, UniProt Q9HB71); conditions: protein CACYBP; U3A cells
[26] = target: proteins of U3A human fibrosarcoma cells (4462 proteins detected) (Homo sapiens, UniProt Q9HC38); conditions: protein GLOD4, U3A cells
[27] = target: proteins of U3A human fibrosarcoma cells (4462 proteins detected) (Homo sapiens, UniProt Q9UIG0); conditions: protein BAZ1B; U3A cells
[28] = target: proteins of U3A human fibrosarcoma cells (4462 proteins detected) (Homo sapiens, UniProt Q9UJU6); conditions: protein DBNL, U3A cells
[29] = target: proteins of U3A human fibrosarcoma cells (4462 proteins detected) (Homo sapiens, UniProt Q9UMS4); conditions: protein PRPF19; U3A cells
[30] = target: proteins of U3A human fibrosarcoma cells (4462 proteins detected) (Homo sapiens, UniProt Q9Y2A7); conditions: protein NCKAP1; U3A cells

Chain of proteins of U3A human fibrosarcoma cells (4462 proteins detected) (Homo sapiens, UniProt Q14669) (Q14669 with tags, fused parts or gaps): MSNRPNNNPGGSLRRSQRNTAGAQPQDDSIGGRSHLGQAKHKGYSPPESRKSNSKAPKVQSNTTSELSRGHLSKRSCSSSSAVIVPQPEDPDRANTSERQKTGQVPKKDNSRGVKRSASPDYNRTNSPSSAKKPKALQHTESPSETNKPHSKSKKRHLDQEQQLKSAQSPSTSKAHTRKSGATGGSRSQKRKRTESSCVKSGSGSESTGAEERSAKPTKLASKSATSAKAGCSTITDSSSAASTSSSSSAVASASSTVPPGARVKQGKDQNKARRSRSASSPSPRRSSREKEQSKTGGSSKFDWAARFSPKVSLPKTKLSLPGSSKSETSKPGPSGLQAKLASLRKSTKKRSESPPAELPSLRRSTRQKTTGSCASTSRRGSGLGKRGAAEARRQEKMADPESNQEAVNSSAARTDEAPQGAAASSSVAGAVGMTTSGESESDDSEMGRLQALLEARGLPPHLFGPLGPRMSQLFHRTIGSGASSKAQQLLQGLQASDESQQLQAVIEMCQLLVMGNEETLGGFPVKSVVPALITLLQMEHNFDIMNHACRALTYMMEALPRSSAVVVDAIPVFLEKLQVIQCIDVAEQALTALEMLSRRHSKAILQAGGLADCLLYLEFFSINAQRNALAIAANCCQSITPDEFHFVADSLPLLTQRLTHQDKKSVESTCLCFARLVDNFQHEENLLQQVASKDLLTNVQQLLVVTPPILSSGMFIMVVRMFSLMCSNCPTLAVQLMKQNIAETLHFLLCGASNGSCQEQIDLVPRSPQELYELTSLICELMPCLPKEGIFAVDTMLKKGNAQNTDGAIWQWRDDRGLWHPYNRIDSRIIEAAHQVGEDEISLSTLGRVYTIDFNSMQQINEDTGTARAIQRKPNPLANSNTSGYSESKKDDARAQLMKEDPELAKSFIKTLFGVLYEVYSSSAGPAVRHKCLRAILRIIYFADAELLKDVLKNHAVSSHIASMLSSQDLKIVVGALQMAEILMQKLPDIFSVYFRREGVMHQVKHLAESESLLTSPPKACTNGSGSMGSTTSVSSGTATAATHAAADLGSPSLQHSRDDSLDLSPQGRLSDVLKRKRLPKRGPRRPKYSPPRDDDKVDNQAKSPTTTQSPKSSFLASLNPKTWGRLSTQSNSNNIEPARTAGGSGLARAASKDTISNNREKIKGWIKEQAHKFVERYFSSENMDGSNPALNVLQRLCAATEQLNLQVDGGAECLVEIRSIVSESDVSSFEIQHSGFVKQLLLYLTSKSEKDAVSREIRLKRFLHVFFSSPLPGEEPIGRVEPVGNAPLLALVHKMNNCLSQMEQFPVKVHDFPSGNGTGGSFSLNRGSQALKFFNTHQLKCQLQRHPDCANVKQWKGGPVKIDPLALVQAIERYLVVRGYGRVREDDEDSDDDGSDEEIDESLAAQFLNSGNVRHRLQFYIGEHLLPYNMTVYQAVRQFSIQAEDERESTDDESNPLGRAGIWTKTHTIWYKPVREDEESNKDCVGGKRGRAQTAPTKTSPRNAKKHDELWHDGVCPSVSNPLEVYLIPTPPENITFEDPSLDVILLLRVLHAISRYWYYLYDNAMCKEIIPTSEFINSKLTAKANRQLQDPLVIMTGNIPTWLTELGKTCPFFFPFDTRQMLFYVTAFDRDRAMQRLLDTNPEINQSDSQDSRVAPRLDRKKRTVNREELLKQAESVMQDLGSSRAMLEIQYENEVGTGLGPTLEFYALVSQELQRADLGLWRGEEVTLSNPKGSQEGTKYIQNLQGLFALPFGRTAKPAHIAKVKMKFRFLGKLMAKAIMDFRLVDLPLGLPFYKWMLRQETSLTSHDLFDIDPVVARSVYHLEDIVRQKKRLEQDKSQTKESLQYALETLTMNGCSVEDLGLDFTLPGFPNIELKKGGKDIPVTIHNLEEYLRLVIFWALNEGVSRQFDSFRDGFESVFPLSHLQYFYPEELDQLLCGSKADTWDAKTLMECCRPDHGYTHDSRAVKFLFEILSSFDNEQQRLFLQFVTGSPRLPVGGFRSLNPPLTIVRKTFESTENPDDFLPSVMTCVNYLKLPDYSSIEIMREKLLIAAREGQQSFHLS
Chain of proteins of U3A human fibrosarcoma cells (4462 proteins detected) (Homo sapiens, UniProt Q15468) (Q15468 whole entry): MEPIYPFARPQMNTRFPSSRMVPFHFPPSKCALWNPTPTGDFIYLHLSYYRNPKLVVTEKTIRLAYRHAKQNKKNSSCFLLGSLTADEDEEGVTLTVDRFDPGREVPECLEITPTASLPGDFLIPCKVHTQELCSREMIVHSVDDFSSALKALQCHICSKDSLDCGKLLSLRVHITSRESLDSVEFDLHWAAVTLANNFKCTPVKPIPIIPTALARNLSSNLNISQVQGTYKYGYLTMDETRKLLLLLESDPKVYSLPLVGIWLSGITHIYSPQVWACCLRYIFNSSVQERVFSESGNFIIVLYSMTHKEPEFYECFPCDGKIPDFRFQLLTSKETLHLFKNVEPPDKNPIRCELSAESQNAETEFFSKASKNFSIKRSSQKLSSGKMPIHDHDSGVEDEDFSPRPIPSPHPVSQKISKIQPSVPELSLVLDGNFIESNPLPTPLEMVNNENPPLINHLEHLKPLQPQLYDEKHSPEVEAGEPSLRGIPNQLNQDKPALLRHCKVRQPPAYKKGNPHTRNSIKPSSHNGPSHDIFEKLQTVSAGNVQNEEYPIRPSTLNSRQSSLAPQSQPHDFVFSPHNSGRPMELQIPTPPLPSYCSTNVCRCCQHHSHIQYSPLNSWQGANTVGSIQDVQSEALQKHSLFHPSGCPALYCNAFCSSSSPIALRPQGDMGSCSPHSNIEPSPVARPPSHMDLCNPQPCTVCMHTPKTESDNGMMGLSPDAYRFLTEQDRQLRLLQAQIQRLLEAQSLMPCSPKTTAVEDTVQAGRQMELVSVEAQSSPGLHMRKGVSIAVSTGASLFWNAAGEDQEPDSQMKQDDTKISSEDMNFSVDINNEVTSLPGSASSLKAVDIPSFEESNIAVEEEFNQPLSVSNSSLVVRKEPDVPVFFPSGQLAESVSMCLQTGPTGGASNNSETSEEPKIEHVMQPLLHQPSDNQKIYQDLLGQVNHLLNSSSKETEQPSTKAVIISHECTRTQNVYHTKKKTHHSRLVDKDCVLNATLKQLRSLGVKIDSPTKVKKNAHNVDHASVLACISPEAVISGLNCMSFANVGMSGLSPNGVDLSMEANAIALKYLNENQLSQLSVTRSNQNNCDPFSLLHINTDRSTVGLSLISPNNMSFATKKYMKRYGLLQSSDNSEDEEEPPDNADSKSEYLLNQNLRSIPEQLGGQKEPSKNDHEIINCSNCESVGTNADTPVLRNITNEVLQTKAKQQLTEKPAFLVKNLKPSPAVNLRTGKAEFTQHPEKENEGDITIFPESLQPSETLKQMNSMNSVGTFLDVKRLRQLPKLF
Chain of proteins of U3A human fibrosarcoma cells (4462 proteins detected) (Homo sapiens, UniProt Q06323) (Q06323 whole entry): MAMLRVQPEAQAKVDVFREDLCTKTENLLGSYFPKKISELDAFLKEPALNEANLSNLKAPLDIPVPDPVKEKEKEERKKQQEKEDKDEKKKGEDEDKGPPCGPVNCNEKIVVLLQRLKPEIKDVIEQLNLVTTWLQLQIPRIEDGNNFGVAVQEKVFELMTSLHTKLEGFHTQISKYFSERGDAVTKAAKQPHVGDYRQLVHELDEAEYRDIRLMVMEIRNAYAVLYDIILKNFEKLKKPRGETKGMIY
Chain of proteins of U3A human fibrosarcoma cells (4462 proteins detected) (Homo sapiens, UniProt Q9UIG0) (Q9UIG0 whole entry): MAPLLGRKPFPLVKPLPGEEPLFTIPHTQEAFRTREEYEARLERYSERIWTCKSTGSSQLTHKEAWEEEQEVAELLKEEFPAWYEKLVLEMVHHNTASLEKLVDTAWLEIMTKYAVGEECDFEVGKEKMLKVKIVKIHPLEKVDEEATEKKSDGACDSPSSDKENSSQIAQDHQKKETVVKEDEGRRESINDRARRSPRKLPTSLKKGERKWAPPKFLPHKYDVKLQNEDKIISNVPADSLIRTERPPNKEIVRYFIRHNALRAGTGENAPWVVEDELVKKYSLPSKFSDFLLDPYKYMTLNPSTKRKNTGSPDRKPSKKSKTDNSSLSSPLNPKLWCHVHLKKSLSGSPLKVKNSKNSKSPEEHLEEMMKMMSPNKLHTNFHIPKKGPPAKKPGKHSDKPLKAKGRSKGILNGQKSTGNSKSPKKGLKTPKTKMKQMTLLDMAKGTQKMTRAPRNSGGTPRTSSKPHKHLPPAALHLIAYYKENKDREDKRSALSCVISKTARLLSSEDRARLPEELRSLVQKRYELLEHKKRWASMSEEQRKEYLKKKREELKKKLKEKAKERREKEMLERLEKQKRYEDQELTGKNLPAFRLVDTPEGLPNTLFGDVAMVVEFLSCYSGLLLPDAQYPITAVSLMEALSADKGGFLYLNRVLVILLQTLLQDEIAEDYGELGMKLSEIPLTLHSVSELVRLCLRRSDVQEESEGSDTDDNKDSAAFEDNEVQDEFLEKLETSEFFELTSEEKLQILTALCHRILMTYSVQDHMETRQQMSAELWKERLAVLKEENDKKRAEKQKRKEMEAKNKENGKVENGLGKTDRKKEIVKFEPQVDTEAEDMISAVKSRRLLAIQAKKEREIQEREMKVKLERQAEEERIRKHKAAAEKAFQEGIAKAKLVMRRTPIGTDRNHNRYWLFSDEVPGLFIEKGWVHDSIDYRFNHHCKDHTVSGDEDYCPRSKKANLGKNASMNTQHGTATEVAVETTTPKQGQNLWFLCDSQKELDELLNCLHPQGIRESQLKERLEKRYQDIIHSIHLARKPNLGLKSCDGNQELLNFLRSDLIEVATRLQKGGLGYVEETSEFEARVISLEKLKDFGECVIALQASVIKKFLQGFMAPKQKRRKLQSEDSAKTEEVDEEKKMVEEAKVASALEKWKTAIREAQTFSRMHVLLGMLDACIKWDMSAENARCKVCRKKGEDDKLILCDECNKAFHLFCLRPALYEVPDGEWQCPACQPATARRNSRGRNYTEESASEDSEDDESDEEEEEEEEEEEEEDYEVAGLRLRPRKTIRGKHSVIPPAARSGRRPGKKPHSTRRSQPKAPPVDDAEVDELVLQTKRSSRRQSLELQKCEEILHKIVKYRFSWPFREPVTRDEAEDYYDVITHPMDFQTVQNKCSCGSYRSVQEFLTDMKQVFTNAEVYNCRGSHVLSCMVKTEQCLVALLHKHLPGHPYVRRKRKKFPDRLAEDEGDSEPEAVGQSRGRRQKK

SMILES: CCc1nc(N)nc(N)c1-c1ccc(Cl)cc1 [pyrimethamine]
- Log2 (PYR/DMSO) [1]: 0.17
- Log2 (PYR/DMSO) [2]: 0.15
- Log2 (PYR/DMSO) [3]: -0.04
- Log2 (PYR/DMSO) [4]: 0.16
- Log2 (PYR/DMSO) [5]: 0.15
- Log2 (PYR/DMSO) [6]: 0.18
- Log2 (PYR/DMSO) [7]: 0.14
- Log2 (PYR/DMSO) [8]: 0.14
- Log2 (PYR/DMSO) [9]: 0.14
- Log2 (PYR/DMSO) [10]: 0.22
- Log2 (PYR/DMSO) [11]: 0.19
- Log2 (PYR/DMSO) [12]: 0.16
- Log2 (PYR/DMSO) [13]: 0.14
- Log2 (PYR/DMSO) [14]: -0.04
- Log2 (PYR/DMSO) [15]: -0.04
- Log2 (PYR/DMSO), STIL [16]: 0.35
- Log2 (PYR/DMSO) [17]: -0.04
- Log2 (PYR/DMSO) [18]: 0.18
- Log2 (PYR/DMSO) [19]: 0.15
- Log2 (PYR/DMSO) [20]: 0.19
- Log2 (PYR/DMSO) [21]: 0.16
- Log2 (PYR/DMSO) [22]: 0.13
- Log2 (PYR/DMSO), MRPL37 [23]: 0.29
- Log2 (PYR/DMSO) [24]: -0.04
- Log2 (PYR/DMSO) [25]: 0.19
- Log2 (PYR/DMSO) [26]: -0.04
- Log2 (PYR/DMSO) [27]: 0.21
- Log2 (PYR/DMSO) [28]: -0.04
- Log2 (PYR/DMSO) [29]: 0.17
- Log2 (PYR/DMSO) [30]: 0.15
